How the values were obtained:
GM3 synthase [1] = test: GM3 synthase activity in homogenates of pericytes treated with AGE; assay type: cell-based, bovine; conditions: 3 μM AGE, 7 days, vs BSA control
Procedure: (§1) The AGE and the BSA control (final concentration of 3 μM) were added to the culture medium 24 hours after inoculation. Each cell type was treated for one passage (about 7 days for the BRP and 4 days for the RMC). The culture medium was replaced with a fresh medium every two days.
(§2) At the end of the treatment, the cells were washed with PBS, incubated for 20 minutes at 4° C. in 50 μl of lysis buffer (20 mM sodium cacodylate, pH 6.6 (Sigma), 0.2% of Triton X-100, 1 mM EDTA, 10 μl/ml of protease inhibitors, Calbiochem, La Jolla, Calif., United States) and then collected by scraping. Four dishes of BRP (about 2-3×10^6 cells) and three dishes of RMC (about 3-6×10^6 cells) were pooled. The cell lysates were centrifuged at 10,000 g for 5 minutes and the proteins in the supernatants were used to measure the GM3 synthase activity. The glomerular residues were mechanically homogenised with a syringe in 25 mM Hepes containing 1 mM EDTA and 10 μl/ml of protease inhibitors. The homogenates were then centrifuged at 1000 g for 2 minutes and the postnuclear supernatant was used to measure the GM3 synthase activity. Equivalent amounts of proteins for each sample (about 500 μg for the cells and 100 μg for the glomeruli) were used to perform the test. […]

[2] = system: gangliosides in pericytes (BRP); test: Ganglioside profile in pericytes treated with AGE (HPTLC); assay type: cell-based, bovine; conditions: 3 μM AGE
Procedure: as §1
(§3) For metabolic labelling of the gangliosides, 0.2 μCi/ml or 1 μCi/ml of [^14C(U)]-D-galactose (329.5 mCi/mmol) (PerkinElmer Life Sciences, Boston, Mass.) was added to the culture medium overnight for the labelling experiments with a high specific activity (GM2 and GM1 measuring experiment). The cells (5-8×10^5 pericytes or 12-20×10^5 mesangial cells) were then harvested by trypsinisation and washed three times in PBS. The gangliosides were extracted from the cell residues by the method described by Bouchon et al. (Bouchon et al., 1990), modified by Natalizio et al. (Natalizio et al., 2002). Briefly, the cell residues were dispersed in 2 ml of chloroform (C)/methanol (M) (1:1, v/v), mixed vigorously and extracted overnight at 4° C. After centrifugation, the residues were extracted twice with 2 ml of the same solvent. The pooled extracts of total lipids were dried by evaporation and separated with the aid of a 1 mM C/M/PBS solution (10:10:7, v/v/v). The upper phases, containing the gangliosides, were then desalted on a C18 silica gel column (Waters Corporation, Milford, Mass.) and analysed by HPTLC (Merck, Darnstadt, Germany). The plates were developed in 0.2% C/M/CaCl2 (55:45:10, v/v/v). The gangliosides were visualised by autoradiography using a phosphorus screen and a Storm 820 (Molecular Dynamics, Amersham Pharmacia Biotech, Piscataway, United States) and by labelling with resorcinol (specific stain for gangliosides: resorcinol 0.3% (Sigma), CuSO4 0.03%, HCl 30%) using an Image Master VDS-CL (Amersham Pharmacia Biotech). Quantification was performed using an Image Quant (Molecular Dynamics). As GT1b was absent from the ganglioside profiles of both the BRP and the RMC, it was added to the samples as an internal standard prior to lipid extraction.

pericytes (BRP) [3] = test: AGE effect on proliferation of pericytes (cell count, total proteins); assay type: cell-based, bovine; conditions: 3 μM AGE, 7 days
Description: Bovine retinal pericytes (BRP) were isolated from bovine retinal micro-vessels as described previously (Lecomte et al., 1996). Briefly, the retinas were obtained by dissection under sterile conditions from enucleated bovine eyes obtained from a local abattoir. After the contaminating pigmented epithelial cells of the retina had been removed, the retinas (2 per culture dish) were sliced into small pieces and homogenised in a Dounce homogeniser in a Hanks balanced saline solution (Ca^2+/Mg^2+-free oxygenated HBSS supplemented with Hepes 10 mM, pH 7.4, antibiotics 1%, bovine serum albumin (BSA, Sigma, Saint-Quentin Fallavier, France) 0.5%). […] The BRP cultures were 100% pure, as characterised by their polygonal irregular morphology with pseudopodia and their growth into non-apposed cells, and as evaluated by positive labelling for both α1-actin and a specific glycolipid antigen (3G5 antibody) and by negative labelling for the von Willebrand factor expressed in the endothelial cells (Lecomte et al., 1996). […]
(§4) At the end of the treatment, the cells were harvested with trypsin and the cell residues were washed twice with a phosphate buffered saline solution (iced PBS) (Sigma). For each sample, one aliquot of cells was counted using a haemocytometer in order to determine the number of cells. […]

[4] = system: renal mesangial cells (RMC); test: AGE effect on proliferation of renal mesangial cells (cell count, total proteins); assay type: cell-based, rat; conditions: 3 μM AGE, 4 days
Description: Rat renal mesangial cells (RMC) were obtained from purified glomeruli of young male Wistar rats (Charles River, l'Arbresle, France). Briefly, cortex fragments were isolated from rat kidneys freshly removed under sterile conditions. Small pieces were mechanically forced through a 230 μm mesh with HBSS buffer. The glomeruli, passed through this mesh, were then forced through a 73.7 μm mesh. Finally, they were placed on a 70 μm mesh and placed in 6 cm dishes covered with fibronectin (4 dishes for 2 renal glomeruli) in DMEM supplemented with 20% of foetal bovine serum, 1% of glutamine and 1% of penicillin/streptomycin. After the attachment period, the excrescence of RMC from glomeruli occurred after three weeks and the cells were then cultivated to the fifth passage in order to remove the residual epithelial and endothelial cells. The RMC are characterised by morphological criteria (star shape, wick shape when they are confluent) and by positive labelling with vimentin, smooth muscle α-actin and Thy-1 antigen. […]
as §4

GM3 synthase [5] = test: GM3 synthase activity in homogenates of mesangial cells treated with AGE; assay type: cell-based, rat; conditions: 3 μM AGE, 4 days, vs BSA control
Procedure: as §1, §2

[6] = system: gangliosides in mesangial cells (RMC); test: Ganglioside profile in mesangial cells treated with AGE (HPTLC); assay type: cell-based, rat; conditions: 3 μM AGE, resorcinol staining
Procedure: as §1, §3

GM3 synthase [7] = test: GM3 synthase activity in RMC transfected with GM3 synthase siRNA; assay type: cell-based, rat
Procedure: as §2, with “inhibitors.” for “inhibitors. The homogenates were then centrifuged at 1000 g for 2 minutes and the postnuclear supernatant was used to measure the GM3 synthase activity. Equivalent amounts of proteins for each sample (about 500 μg for the cells and 100 μg for the glomeruli) were used to perform the test.”
To block the GM3 synthase activity, RMC were cultivated in 6-well culture plates up to 30% confluence and then transfected with an interfering RNA (siRNA) specific for GM3 synthase, which was designed against a rat cDNA sequence (Ambion, Huntingdon, UK) using an Oligofectamine reagent (Invitrogen Corporation). […] After 72 h of transfection, the GM3 synthase activity was measured on homogenates of transfected cells. The proliferation was then evaluated on the cells transfected with the siRNA. […] The cells were then washed twice with PBS and lysed in a Ripa lysis buffer and the proteins were measured in order to evaluate the cell proliferation.

RMC = test: Proliferation of siRNA-transfected RMC treated with AGE; assay type: cell-based, rat; conditions: 400 nM siRNA, then 3 μM AGE 3 days, total proteins
Procedure: To block the GM3 synthase activity, RMC were cultivated in 6-well culture plates up to 30% confluence and then transfected with an interfering RNA (siRNA) specific for GM3 synthase, which was designed against a rat cDNA sequence (Ambion, Huntingdon, UK) using an Oligofectamine reagent (Invitrogen Corporation). The GM3 synthase antisense sequence used was GGGUUAUUCUGAACAUGUUtt (SEQ ID No: 5). In preliminary experiments, a dose-response study was carried out by transfecting the cells with increasing concentrations of siRNA (0-800 nM). After 72 h of transfection, the GM3 synthase activity was measured on homogenates of transfected cells. The proliferation was then evaluated on the cells transfected with the siRNA. For this purpose, 24 hours after transfection with 400 nM siRNA, the cells were treated with 3 μM BSA control or AGE (3 days). The cells were then washed twice with PBS and lysed in a Ripa lysis buffer and the proteins were measured in order to evaluate the cell proliferation.

pericytes (BRP) [8] = test: Treatment with exogenous gangliosides, proliferation of pericytes; assay type: cell-based, bovine; conditions: 50 μM, 7 days, total proteins
Procedure: (§5) To evaluate the effect of exogenous gangliosides on the proliferation of BRP and RMC, the cells were cultivated in 96-well plates. Exogenous glycolipids GM3, GM2, GM1 and GD1a, glucosylceramide and lactosylceramide (Matreya) were added to the complete culture medium in a final concentration of 50 μM in the form of complexes with BSA in a 1:1 ratio in DMEM/10 mM Hepes, pH 7.4. At the end of the treatment, the cells were washed twice with PBS and lysed for 30 minutes at 37° C. in 50 μl of a Ripa lysis buffer (PBS 10 mM, NP40 1% (Pierce, Perbio Science, Brebières, France), sodium deoxycholate 0.5%, SDS 0.1%, protease inhibitors 10 μl/ml). As the number of cells in our experiments was correlated with the total protein concentrations (cf. FIG. 1), the total proteins were measured using the BCA protein test (Pierce) in order to evaluate the cell proliferation.

mesangial cells (RMC) = test: Treatment with exogenous gangliosides, proliferation of mesangial cells; assay type: cell-based, rat; conditions: 50 μM, 4 days, total proteins
Procedure: as §5

[9] = pericytes, resorcinol staining, vs BSA control

AGE: prepared by incubating bovine serum albumin with 100 mM methylglyoxal at 37° C. for 50 hours
increase of GM3 synthase activity (factor) (GM3 synthase [1]): about 1.8 | increase in GM2 ([2]; BRP, [14C]-D-galactose labelling, autoradiography): 55% | increase in series a ganglioside GM1 [2, 9]: about 40% | increase in series a ganglioside GM3 [2, 9]: about 40% | reduction of series b ganglioside GD3 [2, 9]: 24% | reduction of the number of pericytes (pericytes (BRP) [3]; cell count, vs BSA control): 33% | total proteins (pericytes (BRP) [3]; pericytes): decreased in correlation with the number of cells | reduction of the number of mesangial cells ([4]; cell count, vs BSA control): 40% | total proteins ([4]; mesangial cells): decreased in correlation with the number of cells | increase of GM3 synthase activity (factor) (GM3 synthase [5]): about 1.5 | GD1a levels [6]: not affected | increase in GM3 ([6]; vs BSA control): 33% | reduction of GD3 ([6]; vs BSA control): 30%

GGGUUAUUCUGAACAUGUUtt (guide GGGUUAUUCUGAACAUGUUTT; chemistry not given here) [GM3 synthase siRNA]
inhibition of GM3 synthase activity (GM3 synthase [7]; RMC transfected with siRNA): 50% | inhibition of GM3 synthase activity (in words) (GM3 synthase [7]; RMC, preliminary experiments, siRNA 0-800 nM, 72 h): effectively inhibited | effects of AGE on the proliferation of the RMC (RMC): partially inhibited

glucosylceramide
effect on proliferation of pericytes (in words) (pericytes (BRP) [8]): no effect | effect on proliferation of mesangial cells (in words) (mesangial cells (RMC)): no effect

lactosylceramide
effect on proliferation of pericytes (in words) (pericytes (BRP) [8]): no effect | effect on proliferation of mesangial cells (in words) (mesangial cells (RMC)): no effect

α-N-acetyl-neuraminyl-2,3-β-D-galactosyl-1,4-β-D-glucosylceramide [GM3]
effect on proliferation of pericytes (in words) (pericytes (BRP) [8]): weakly inhibited | effect on proliferation of mesangial cells (in words) (mesangial cells (RMC)): no significant effect
